# Assay results taken from patent US10111936B2, “Metal-glycoprotein complexes and photodynamic therapy of immune privileged sites with same” (Theralase Technologies, Inc., priority 2015, dated 2018).
# Experiments:
# [1] = Absorbance / optical density with transferrin or OPTIFERRIN; type: physicochemical; conditions: novel absorption in the red (600 nm) and near infrared (800 nm)
# Protocol: Transferrin (0.2 mg/mL) was incubated with different photosensitizers (10 uM) and the absorbance spectra were obtained. […] Note that a large relative increase in absorbance may be accompanied by a small absolute difference and vice versa.
# The optical density of TLD1433 was measured before and after the addition of either OPTIFERRIN (available from InVitria, a division of Ventria Bioscience) or human apo-transferrin (Sigma). […] This finding highlights the potential of using OPTIFERRIN to increase the efficacy of Theralase's TLD1433 photosensitizer. The increase in optical density will translate to a higher production of reactive oxygen species during PDT treatment. The absorption in red and near infrared light will allow for novel treatment applications for different tumors.
# [2] = system: RG2 cells (rat glioblastoma tumor model); test: In vivo PDT in rat glioblastoma; conditions: ALA mediated PDT in RG2 tumor model; comparison
# Protocol: A four-month old rat was injected in the cerebral cortex with 5000 RG2 cells (rat glioblastoma tumor model). Eleven days later, the rat was injected with TLD1433 (5 mg/kg) with human apo-transferrin.
# PDT was administered 24 hours later. Light source and fluence: 808 nm wavelength, 300 J/cm^2 delivered at 100 mW. The number of photons absorbed was 2.8×10^17 photons/cm^3.
# A five-month old rat was injected in the cerebral cortex with 5000 RG2 cells. Eleven days later, the rat was injected with TLD1433 (5 mg/kg) with human apo-transferrin. PDT was administered 24 hours later. Light source and fluence: 808 nm wavelength, 600 J/cm^2 delivered at 200 mW. The number of photons absorbed was 4.41×10^18 photons/cm^3.
# [3] = cited from earlier work
molecule,measurement,setting,value
"TLD1433-OPTIFERRIN complex: complex of TLD1433 with OPTIFERRIN, a recombinant human transferrin",optical density after addition of OPTIFERRIN,[1],substantial increase in optical density
NCC(=O)CCC(=O)O [aminolevulinic acid],post PDT survival,[2],8 days
Cn1nnc2c(C(N)=O)ncn2c1=O [temozolomide],half-life,[3],approximately 1.8 hours
